Measured values: ChEMBL document CHEMBL4359888, “Discovery of aryl-substituted indole and indoline derivatives as RORγt agonists” (Eur J Med Chem, 2019)
Converted amounts (≈) assume the structure as drawn.

Target: T1, Nuclear receptor ROR-gamma (Homo sapiens, UniProt P51449)
T1 sequence (P51449 whole entry): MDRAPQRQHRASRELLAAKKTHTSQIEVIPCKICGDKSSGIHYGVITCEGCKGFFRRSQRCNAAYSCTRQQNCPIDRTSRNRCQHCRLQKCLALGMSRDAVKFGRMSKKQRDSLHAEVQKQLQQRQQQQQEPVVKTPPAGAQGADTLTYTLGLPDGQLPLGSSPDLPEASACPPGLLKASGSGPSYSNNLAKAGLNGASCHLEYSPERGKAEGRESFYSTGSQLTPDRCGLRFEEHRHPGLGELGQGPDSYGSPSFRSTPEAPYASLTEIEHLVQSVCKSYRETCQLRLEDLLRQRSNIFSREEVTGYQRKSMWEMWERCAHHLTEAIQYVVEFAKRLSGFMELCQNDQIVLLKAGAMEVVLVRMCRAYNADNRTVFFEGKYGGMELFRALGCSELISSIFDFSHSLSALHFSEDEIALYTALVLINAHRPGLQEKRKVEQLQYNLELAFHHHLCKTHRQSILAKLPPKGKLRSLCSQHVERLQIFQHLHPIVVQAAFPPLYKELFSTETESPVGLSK
Test: Agonist activity at APC-labeled biotinylated RORgammaT LBD (unknown origin) assessed as induction of biotinylated SRC-1 peptide recruitment incubated for 1 hr by dual FRET assay
Conditions: not given

Row | Structure (SMILES) | EC50 [nM]
1 | O=S(=O)(c1cccc(C(F)(F)F)c1)n1ccc2ccc(-c3cc(F)cc(OC(F)F)c3)cc21 | 99.4
2 | O=C(O)C[C@H]1Cc2ccc(-c3cc(F)cc(OC(F)F)c3)cc2N1S(=O)(=O)c1cccc(C(F)(F)F)c1 | 286
3 | O=C(O)CC1Cc2ccc(-c3cc(F)cc(C(F)(F)F)c3)cc2N1S(=O)(=O)c1cccc(C(F)(F)F)c1 (configuration not stated) | 41.3
4 | O=C(O)CCC1Cc2ccc(-c3cc(F)cc(OC(F)F)c3)cc2N1S(=O)(=O)c1cccc(C(F)(F)F)c1 (configuration not stated) | 31.3
5 | O=C1CN(C(=O)CC2Cc3ccc(-c4cc(F)cc(OC(F)F)c4)cc3N2S(=O)(=O)c2cccc(C(F)(F)F)c2)C1 (configuration not stated) | 78.8
6 | O=C(CC1Cc2ccc(-c3cc(F)cc(OC(F)F)c3)cc2N1S(=O)(=O)c1cccc(C(F)(F)F)c1)N1CCC(O)CC1 (configuration not stated) | 106
7 | O=C(O)Cc1cc2ccc(-c3cc(F)cc(OC(F)F)c3)cc2n1S(=O)(=O)c1cccc(C(F)(F)F)c1 | 125
8 | O=C(O)CCCC1CN(S(=O)(=O)c2cccc(C(F)(F)F)c2)c2cc(-c3cc(F)cc(OC(F)F)c3)ccc21 (configuration not stated) | 26.2
9 | O=C(O)C1CCN(C(=O)CC2Cc3ccc(-c4cc(F)cc(OC(F)F)c4)cc3N2S(=O)(=O)c2cccc(C(F)(F)F)c2)CC1 (configuration not stated) | 57.1
10 | O=C1CCN(C(=O)CC2Cc3ccc(-c4cc(F)cc(OC(F)F)c4)cc3N2S(=O)(=O)c2cccc(C(F)(F)F)c2)CC1 (configuration not stated) | 80.4
11 | O=C(CC1Cc2ccc(-c3cc(F)cc(OC(F)F)c3)cc2N1S(=O)(=O)c1cccc(C(F)(F)F)c1)N1CCS(=O)(=O)CC1 (configuration not stated) | 43.4
12 | O=S(=O)(c1cccc(C(F)(F)F)c1)N1CCc2ccc(OCc3c(F)cccc3Cl)cc21 | 30.2
13 | O=C(O)CCCC1Cc2ccc(-c3cc(F)cc(OC(F)F)c3)cc2N1S(=O)(=O)c1cccc(C(F)(F)F)c1 (configuration not stated) | 25.2
14 | O=S(=O)(c1cccc(C(F)(F)F)c1)n1cnc2ccc(-c3cc(F)cc(OC(F)F)c3)cc21 | 122
15 | CCOc1cc(F)cc(-c2ccc3c(c2)N(S(=O)(=O)c2cccc(C(F)(F)F)c2)C(CC(=O)O)C3)c1 (configuration not stated) | 32.9
16 | O=C(O)CC1Cc2ccc(-c3cc(F)cc(F)c3)cc2N1S(=O)(=O)c1cccc(C(F)(F)F)c1 (configuration not stated) | 25.7
17 | O=C(O)CC1Cc2ccc(-c3cc(F)cc(Cl)c3)cc2N1S(=O)(=O)c1cccc(C(F)(F)F)c1 (configuration not stated) | 42
18 | O=C(O)C1CN(C(=O)CC2Cc3ccc(-c4cc(F)cc(OC(F)F)c4)cc3N2S(=O)(=O)c2cccc(C(F)(F)F)c2)C1 (configuration not stated) | 49.3
19 | O=C(O)CC1Cc2ccc(-c3cc(F)cc(OC(F)F)c3)cc2N1S(=O)(=O)c1cccc(C(F)(F)F)c1 (racemic) | 20.8

Test system: not listed separately
Test: Metabolic stability in mouse liver microsomes assessed as half life of compound at 1 uM and measured for 60 mins in presence of NADPH by HPLC-MS/MS analysis
Format: ADME, Microsome
Conditions: not given

Row | Structure (SMILES) | half-life at 1 µM [min]
20 | O=S(=O)(c1cccc(C(F)(F)F)c1)n1ccc2ccc(-c3cc(F)cc(OC(F)F)c3)cc21 | 39.1
21 | O=C(O)CCC1Cc2ccc(-c3cc(F)cc(OC(F)F)c3)cc2N1S(=O)(=O)c1cccc(C(F)(F)F)c1 (configuration not stated) | 60.9
22 | O=C(CC1Cc2ccc(-c3cc(F)cc(OC(F)F)c3)cc2N1S(=O)(=O)c1cccc(C(F)(F)F)c1)N1CCC(O)CC1 (configuration not stated) | 0.7
23 | O=C(O)CCCC1CN(S(=O)(=O)c2cccc(C(F)(F)F)c2)c2cc(-c3cc(F)cc(OC(F)F)c3)ccc21 (configuration not stated) | 34.2
24 | O=C(O)C1CCN(C(=O)CC2Cc3ccc(-c4cc(F)cc(OC(F)F)c4)cc3N2S(=O)(=O)c2cccc(C(F)(F)F)c2)CC1 (configuration not stated) | 30.1
25 | O=C(CC1Cc2ccc(-c3cc(F)cc(OC(F)F)c3)cc2N1S(=O)(=O)c1cccc(C(F)(F)F)c1)N1CCS(=O)(=O)CC1 (configuration not stated) | 2
26 | O=S(=O)(c1cccc(C(F)(F)F)c1)N1CCc2ccc(OCc3c(F)cccc3Cl)cc21 | 2.9
27 | O=C(O)CCCC1Cc2ccc(-c3cc(F)cc(OC(F)F)c3)cc2N1S(=O)(=O)c1cccc(C(F)(F)F)c1 (configuration not stated) | 93.3
28 | O=C(O)C1CN(C(=O)CC2Cc3ccc(-c4cc(F)cc(OC(F)F)c4)cc3N2S(=O)(=O)c2cccc(C(F)(F)F)c2)C1 (configuration not stated) | 65.9
29 | O=C(O)CC1Cc2ccc(-c3cc(F)cc(OC(F)F)c3)cc2N1S(=O)(=O)c1cccc(C(F)(F)F)c1 (racemic) | 113

Target: T1, Nuclear receptor ROR-gamma
Test: Transactivation of human GAL4-fused RORgammaT LBD expressed in human HEK293T cells incubated for 16 to 20 hrs by steady-glo luciferase assay
Format: cell-based
Conditions: not given

Row | Structure (SMILES) | EC50 [nM]
30 | O=C(O)CCC1Cc2ccc(-c3cc(F)cc(OC(F)F)c3)cc2N1S(=O)(=O)c1cccc(C(F)(F)F)c1 (configuration not stated) | 2320
31 | O=C(CC1Cc2ccc(-c3cc(F)cc(OC(F)F)c3)cc2N1S(=O)(=O)c1cccc(C(F)(F)F)c1)N1CCC(O)CC1 (configuration not stated) | 6040
32 | O=C(O)C1CCN(C(=O)CC2Cc3ccc(-c4cc(F)cc(OC(F)F)c4)cc3N2S(=O)(=O)c2cccc(C(F)(F)F)c2)CC1 (configuration not stated) | 5440
33 | O=C(CC1Cc2ccc(-c3cc(F)cc(OC(F)F)c3)cc2N1S(=O)(=O)c1cccc(C(F)(F)F)c1)N1CCS(=O)(=O)CC1 (configuration not stated) | 322
34 | O=C(O)CCCC1Cc2ccc(-c3cc(F)cc(OC(F)F)c3)cc2N1S(=O)(=O)c1cccc(C(F)(F)F)c1 (configuration not stated) | 422
35 | O=C(O)C1CN(C(=O)CC2Cc3ccc(-c4cc(F)cc(OC(F)F)c4)cc3N2S(=O)(=O)c2cccc(C(F)(F)F)c2)C1 (configuration not stated) | 4050
36 | O=C(O)CC1Cc2ccc(-c3cc(F)cc(OC(F)F)c3)cc2N1S(=O)(=O)c1cccc(C(F)(F)F)c1 (racemic) | 247

Test system: not listed separately
Test: Cmax in CD-1 mouse at 1 mg/kg, iv measured for 24 hrs by LC-MS/MS analysis
Format: ADME, organism-based
Parameters: dose 1 mg/kg, route intravenous
Conditions: in vivo

Row | Structure (SMILES) | Cmax [ng/mL]
37 | O=C(O)CC1Cc2ccc(-c3cc(F)cc(OC(F)F)c3)cc2N1S(=O)(=O)c1cccc(C(F)(F)F)c1 (racemic) | 1640

Test system: not listed separately
Test: AUC (0 to last) in CD-1 mouse at 1 mg/kg, iv measured for 24 hrs by LC-MS/MS analysis
Format: ADME, organism-based
Parameters: dose 1 mg/kg, route intravenous, time 0 - last
Conditions: in vivo

Row | Structure (SMILES) | AUC(0-t) at 24 h [ng·h/mL]
38 | O=C(O)CC1Cc2ccc(-c3cc(F)cc(OC(F)F)c3)cc2N1S(=O)(=O)c1cccc(C(F)(F)F)c1 (racemic) | 1710

Test system: not listed separately
Test: Volume of distribution at steady state in CD-1 mouse at 1 mg/kg, iv measured for 24 hrs by LC-MS/MS analysis
Format: ADME, organism-based
Conditions: in vivo, read-out: Vdss

Row | Structure (SMILES) | Vd [L/kg]
39 | O=C(O)CC1Cc2ccc(-c3cc(F)cc(OC(F)F)c3)cc2N1S(=O)(=O)c1cccc(C(F)(F)F)c1 (racemic) | 2.09

Test system: not listed separately
Test: Half life in CD-1 mouse at 1 mg/kg, iv measured for 24 hrs by LC-MS/MS analysis
Format: ADME, organism-based
Conditions: in vivo

Row | Structure (SMILES) | half-life [min]
40 | O=C(O)CC1Cc2ccc(-c3cc(F)cc(OC(F)F)c3)cc2N1S(=O)(=O)c1cccc(C(F)(F)F)c1 (racemic) | 295

Test system: not listed separately
Test: Clearance in CD-1 mouse at 1 mg/kg, iv measured for 24 hrs by LC-MS/MS analysis
Format: ADME, organism-based
Conditions: in vivo

Row | Structure (SMILES) | clearance [mL/min/kg]
41 | O=C(O)CC1Cc2ccc(-c3cc(F)cc(OC(F)F)c3)cc2N1S(=O)(=O)c1cccc(C(F)(F)F)c1 (racemic) | 9.55

Test system: not listed separately
Test: Cmax in CD-1 mouse at 5 mg/kg, po measured for 24 hrs by LC-MS/MS analysis
Format: ADME, organism-based
Parameters: dose 5 mg/kg, route oral
Conditions: in vivo

Row | Structure (SMILES) | Cmax [ng/mL]
42 | O=C(O)CC1Cc2ccc(-c3cc(F)cc(OC(F)F)c3)cc2N1S(=O)(=O)c1cccc(C(F)(F)F)c1 (racemic) | 1400

Test system: not listed separately
Test: AUC (0 to last) in CD-1 mouse at 5 mg/kg, po measured for 24 hrs by LC-MS/MS analysis
Format: ADME, organism-based
Parameters: dose 5 mg/kg, route oral, time 0 - last
Conditions: in vivo

Row | Structure (SMILES) | AUC(0-t) at 24 h [ng·h/mL]
43 | O=C(O)CC1Cc2ccc(-c3cc(F)cc(OC(F)F)c3)cc2N1S(=O)(=O)c1cccc(C(F)(F)F)c1 (racemic) | 9120

Test system: not listed separately
Test: Half life in CD-1 mouse at 5 mg/kg, po measured for 24 hrs by LC-MS/MS analysis
Format: ADME, organism-based
Conditions: in vivo

Row | Structure (SMILES) | half-life [min]
44 | O=C(O)CC1Cc2ccc(-c3cc(F)cc(OC(F)F)c3)cc2N1S(=O)(=O)c1cccc(C(F)(F)F)c1 (racemic) | 249

Test system: not listed separately
Test: Oral bioavailability in CD-1 mouse at 5 mg/kg measured for 24 hrs by LC-MS/MS analysis
Format: ADME, organism-based
Conditions: in vivo

Row | Structure (SMILES) | bioavailability [%]
45 | O=C(O)CC1Cc2ccc(-c3cc(F)cc(OC(F)F)c3)cc2N1S(=O)(=O)c1cccc(C(F)(F)F)c1 (racemic) | 107

Test system: not listed separately
Test: in vitro
Conditions: mouse, liver microsomes

Row | Structure (SMILES) | microsomal CLint at 1 h, 1 µM [µL/min/mg]
46 | O=S(=O)(c1cccc(C(F)(F)F)c1)N1CCc2ccc(OCc3c(F)cccc3Cl)cc21 | 482
47 | O=C(O)CC1Cc2ccc(-c3cc(F)cc(OC(F)F)c3)cc2N1S(=O)(=O)c1cccc(C(F)(F)F)c1 (racemic) | 12.3

Test system: not listed separately
Test: physchem
Conditions: phosphate buffer, pH 7.46

Row | Structure (SMILES) | solubility kinetic at 2 h, 100 µM [µM]
48 | O=S(=O)(c1cccc(C(F)(F)F)c1)N1CCc2ccc(OCc3c(F)cccc3Cl)cc21 | 0.08 (≈ 0.0389 µg/mL)
49 | O=C(O)CC1Cc2ccc(-c3cc(F)cc(OC(F)F)c3)cc2N1S(=O)(=O)c1cccc(C(F)(F)F)c1 (racemic) | 69.4 (≈ 37.9 µg/mL)
50 | CC(C)(C[C@H]1CN(S(=O)(=O)c2cccc(C(F)(F)F)c2)c2cc(-c3cc(F)cc(OC(F)F)c3)ccc2O1)C(=O)O [CINTIRORGON] | 37.5 (≈ 22.6 µg/mL)
51 | CC(=O)N1CCN(c2ccc(OCC3COC(Cn4ccnc4)(c4ccc(Cl)cc4Cl)O3)cc2)CC1 (configuration not stated) [KETOCONAZOLE] | 31.1 (≈ 16.5 µg/mL)
52 | COC(=O)C1=C(C)NC(C)=C(C(=O)OCCN(C)Cc2ccccc2)C1c1cccc([N+](=O)[O-])c1 (configuration not stated) [NICARDIPINE] | 5.01 (≈ 2.4 µg/mL)
